Reference: patent US20040116405A1, “Use of bicyclic esters or amides for the treatment of diseases responsive to enhanced potassium channel activity” (priority 2001, published 2004)

Molecular target: T1, hIK channels (Homo sapiens, UniProt O15554)
T1 construct: The full length hSK-1, 2, 3 and IK clones were obtained; expressed in transfected cells
Assay: Whole cell patch clamp electrophysiology, hIK channels expressed in CHO-K1 cells (FIG. 1)
Format: cell-based
Procedure: FIG. 1 illustrates the activation of hIK channels expressed in CHO—K1 cells by a compound of formula (V): [drawing 3]
The full length hSK-1, 2, 3 and IK clones were obtained either by PCR and 5′-RACE from a human cDNA library (Genbank accession numbers hSK1 U69883; hSK-2 unpublished) or from the Incyte or dbEST databases (Incyte Pharmaceuticals, Inc.; hSK3 AJ251016, hIK AF022797). An optimal Kozak sequence was added to the initiation site and the cDNA was cloned into Bluescript and subsequently the IRES vector pCIN5 for mammalian expression.
All SK/IK stable cell lines were generated in CHO—K1 using the pCIN5 construct, under selection for resistance to 500 μg/ml geneticin. Five μg of the purified plasmid DNA was used to transfect 5×10^6 CHO—K1 cells (ATCC N° CRL 9618) by electroporation (standard protocol with BIORAD Gene Pulser II). […]
Standard whole cell patch clamp electrophysiology methods are used to record membrane currents from single cells expressing either SK or IK channels. […] Membrane currents are amplified and recorded with an Axopatch 200B or HEKA EPC-9 patch clamp amplifier coupled to a Pentium microprocessor via an analog-digital interface. […] Pipettes are backfilled with an internal solution containing a 144 mM KCl, 10 mM EGTA, 10 mM HEPES, 1 mM MgCl2 and concentrations of CaCl2 calculated to give free Ca^2+ concentrations ranging from 30 nM to 1 μM. […]

Row | activation of hIK channels (whole cell currents, timecourse, concentration response curves) (hIK expressed in CHO-K1 cells, FIG. 1(a)-(c)) | Molecule | inhibition of hIK current by the IK blocker (charybdotoxin 100 nM, hIK in CHO-K1 cells activated by compound of formula (V), FIG. 1(d))
1 | activation | NC(=O)/C=C1\CCc2c(F)cc(F)cc21 [compound of formula (V)] | –
2 | – | charybdotoxin | inhibition
